For 16 compounds, TGI and GI50 results are on record in PubChem BioAssay (NCI).

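Values below derive from 48-hour exposures of cells grown in 96-well plates, with endpoints linearly interpolated between the two concentrations bracketing the appropriate inhibition level. GI50: concentration for 50% inhibition of growth. TGI denotes the concentration required for complete inhibition of growth.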 Bounds are passed on as bounds.

What all share (assay): growth of human tumour cells (NCI), 48 h
For assay [1], the system named is M14 melanoma.
In assay [2] the test system is EKVX NSCLC.
The subject of assay [3] is HOP-62 NSCLC.
Assay [4] relates to U251 CNS.
Assay [5] has as its system SF-295 CNS.
The test system of assay [6] is HCT-15 colon.
In assay [7] the test system is UACC-62 melanoma.
Assay [8] has as its system SK-MEL-28 melanoma.
Assay [9] deals with SR leukemia.

Take `O=c1cccccc1[O-].O=c1cccccc1[O-].O=c1cccccc1[O-].[La+3]`: the TGI is 53.8 µM in assay [1]; more than 100 µM in [2]; 78.5 µM in assay [3]; 76.2 µM in assay [4]; 39.6 µM in [5]; more than 100 µM in assay [6]. In assay [7], this compound returned a TGI of 52 µM. The GI50 was 31.4 µM in assay [3] and 11 µM in [4].
Regarding `N#Cc1cccc(/C=N/N=C(\N)NO)c1`, the TGI in assay [1], in assay [8], in [2], in [3], in assay [4] and in assay [9] was more than 100 µM each time. For the same compound, the TGI in assay [5] was more than 100 µM; in [6], more than 100 µM; in [7] it was 52.8 µM.
Take `CN1C(=O)C2C(C1=O)C1(O)c3ccccc3C2(N)c2ccccc21` (centres undefined): the TGI in [1], in assay [8], in assay [2], in [3], in [4] and in [5] was more than 100 µM in each case. Moreover, the TGI in assay [6] and in [7] was more than 100 µM each time.
Regarding `CN(C)c1ccc(/C=c2\sc3nc4ccccc4n3c2=O)cc1`, the TGI in [1], in assay [8], in [2], in assay [3], in [4] and in [5] was more than 100 µM each time. For the same compound, the TGI in assay [6] and in assay [7] was more than 100 µM in each case.
On to `COc1ccc(C2ON(c3cccc(C)n3)CC=C2C)cc1` (centres undefined), for which the TGI in assay [1] was more than 100 µM; in [8] it was 71.3 µM; in [2], more than 100 µM; in assay [3], more than 100 µM; in assay [4], more than 100 µM; in assay [9] it was 99.2 µM. In addition, the TGI in assay [5], in assay [6] and in assay [7] was more than 100 µM throughout.
For the compound `NC(N)=NS(=O)(=O)c1ccc(NCCc2c3ccccc3nc3ccccc23)cc1`, the TGI in assay [1], in assay [8], in [2], in assay [3], in [4] and in assay [9] was more than 100 µM each time. Also, the TGI in assay [5] and in assay [6] was more than 100 µM in each case.
On to `CCN(CC)c1ccc(N=Nc2ccc(-c3nc4ccc[n+](C)c4o3)cc2)cc1`, for which the TGI in assay [1] is 24.8 µM; in [2], 26.7 µM; in assay [3], 29.9 µM; in assay [4] it was 16.6 µM; in assay [9] it was 20.9 µM; in [5], 27.9 µM. The TGI in assay [6] came to 22.3 µM; in [7] it was 22.6 µM.
On to `NC(N)=NS(=O)(=O)c1ccc(Nc2c3ccccc3nc3c(C(=O)Nc4ccc(S(N)(=O)=O)cc4)cccc23)cc1`, for which the TGI in assay [1], in [8], in assay [2], in assay [3], in assay [4] and in assay [5] was more than 100 µM each time. Moreover, the TGI in assay [6] and in [7] was more than 100 µM each time.
As for `COC(=O)Nc1nc2ccc(Br)cc2[nH]1`, the TGI in assay [1] was more than 100 µM; in assay [8], more than 100 µM; in assay [2], more than 100 µM; in [3], more than 100 µM; in assay [4], 87 µM; in assay [9], more than 100 µM. Further, the TGI in assay [5], in assay [6] and in [7] was more than 100 µM throughout.
Consider `COc1ccc(OCC(=O)O)c(C(=O)CCC(=O)O)c1`, for which the TGI was more than 10 µM in assay [1]; more than 100 µM in [8]; more than 100 µM in assay [2]; more than 10 µM in assay [3]; more than 100 µM in [4]; more than 100 µM in [9]. Moreover, the figures for the TGI in assay [5], in [6] and in [7] were more than 100 µM, more than 100 µM and more than 10 µM, respectively.
Take `Clc1ccc(C(n2cc(Br)cn2)n2cc(Br)cn2)cc1`: the TGI in assay [1] was found to be 35.2 µM; in [8] it was 32.6 µM; in assay [2] it was 38.9 µM; in [3], 34.3 µM; in assay [4], 30.8 µM; in [5], 29.8 µM. Further, the TGI in [6] was 33.2 µM; in assay [7] it was 28.7 µM.
Consider `Cc1cc2c(C)nn(Cc3ccc(Cl)cc3)c2c(C#N)c1C`, for which the TGI in [8], in [2], in assay [3], in assay [4], in assay [9] and in [5] was more than 100 µM each time. The TGI in assay [6] and in assay [7] was more than 100 µM throughout.
For the compound `CC1OC(n2cc(F)c(=O)[nH]c2=O)C=CC1=O` (centres undefined), the TGI in assay [1] is 34.1 µM; in [8] it was 31.5 µM; in [3] it was more than 100 µM; in assay [4], 27.9 µM; in [9], 55.8 µM; in assay [5], 31 µM. For the same compound, the TGI in assay [6] worked out at 46.1 µM; in assay [7], 32.4 µM.
On to `COc1cccc(NC(=O)/C(Cc2nc3ccccc3nc2C)=N/NC(=O)C[n+]2ccccc2)c1`, for which the TGI in assay [1] was more than 100 µM; in assay [8] it was more than 100 µM; in assay [2] it was more than 100 µM; in assay [3], more than 100 µM; in [4], 39.8 µM; in assay [9], more than 100 µM. Besides, the TGI in assay [5], in assay [6] and in assay [7] was more than 100 µM in each case.
`N#CC1CC2(CCN1C(=O)c1ccccc1)OCCO2` (centres undefined): the TGI in [1], in [2], in assay [3], in assay [4], in [9] and in [5] was more than 100 µM in each case. The TGI in assay [6] and in assay [7] was more than 100 µM each time.
As for `O=Cc1c(O)c(C(=O)Nc2ccc3[nH]c(=O)[nH]c3c2)cc2ccccc12`, the TGI in [1], in [8], in [2], in assay [3], in [4] and in assay [5] was more than 100 µM each time. Also, the TGI in assay [6] and in assay [7] was more than 100 µM in each case.
